According to US20080279769A1, “Enzyme Inhibitor Imaging Agents” (priority 2004, published 2008):

How the values were obtained:
[1] = biological target: T1, MMP-1 (Homo sapiens, UniProt P03956); assay: In vitro metalloproteinase inhibition assay (colorimetric, thiopeptolide substrate), MMP-1; assay type: biochemical
T1 sequence (P03956 100-469): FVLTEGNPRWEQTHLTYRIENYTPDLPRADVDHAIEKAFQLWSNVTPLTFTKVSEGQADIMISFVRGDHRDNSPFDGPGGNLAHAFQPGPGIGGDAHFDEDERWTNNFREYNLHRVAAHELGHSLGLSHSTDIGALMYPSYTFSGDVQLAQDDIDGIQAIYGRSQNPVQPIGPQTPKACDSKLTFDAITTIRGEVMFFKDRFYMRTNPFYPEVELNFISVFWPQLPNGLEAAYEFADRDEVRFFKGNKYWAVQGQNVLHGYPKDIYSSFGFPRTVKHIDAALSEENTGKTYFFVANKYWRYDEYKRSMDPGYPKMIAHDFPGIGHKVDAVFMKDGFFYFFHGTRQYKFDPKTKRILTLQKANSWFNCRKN
Procedure: [The source words this procedure for another target and reports this target under the same test.] (§1) Compounds were screened using the following commercially available Biomol assay kits:
(§2) MMP-2 colorimetric assay kit-Catalogue number AK-408, MMP-9 colorimetric assay kit-Catalogue number AK-410, MMP-12 colorimetric assay kit-Catalogue number AK-402, Which are available from Affiniti Research Products Ltd. (Palatine House, Matford Court, Exeter, EX2 8NL, UK).
(§3) Inhibitors were provided in powdered form, and stored at 4° C. For each inhibitor a 1 mM stock solution in DMSO was prepared, dispensed into 20 μl aliquots and these aliquots stored at −20° C. The stock solution was diluted to give 8 inhibitor concentrations (recommended: 50 μM, 5 μM, […], 5 nM, […]). Dilutions were made in the kit assay buffer. A five-fold dilution of the inhibitor stocks is made on addition to the assay wells, therefore final concentration range was from 10 μM to 1 pM.
(§4) Details are provided with the commercial kit, but can be summarised as follows: • Prepare test compound dilutions as above, • Add assay buffer to plate, • Add test compounds to plate • Prepare standard kit inhibitor NNGH (see kit for dilution factor) • Add NNGH to control inhibitor wells • Prepare MMP enzyme (see kit for dilution factor) • Add MMP to plate • Incubate plate at 37° C. for ˜15 min • Prepare thiopeptolide substrate (see kit for dilution factor) • Add substrate to plate • Count every 2 min for 1 hr, 37° C., 414 nm on a Labsystems iEMS plate reader.

[2] = system: ApoE ligation model; assay: Biodistribution in ApoE ligated animal model of MMP expression; assay type: in vivo, mice; settings: for Carotid: Blood / Carotid: Heart: ratio
Text: The ApoE ligation model was also studied. ApoE mice are transgenic knock-out mice, which lack the ApoE gene, and are therefore unable to regulate their plasma cholesterol levels. As a consequence ApoE mice develop atherosclerotic lesions, a process which is accelerated with feeding of high fat diet. Further acceleration of lesion development can be achieved by ligating the carotid artery, resulting in advanced lesion formation within 4 weeks of surgery and high fat diet feeding. […] 105, 2686-2691 (2002)].

[3] = system: Lewis Lung [LLC] Carcinoma Tumour model; assay: Biodistribution in animal tumour model of MMP expression; assay type: in vivo; settings: for % ID/g Tumour: 15 days tumour growth
Text: The in vivo Lewis Lung [LLC] Carcinoma Tumour model has been used for screening of MMP is due to reproducible up-regulation of several MMPs in the tumour. As such, this model provides a good assessment of the efficacy of the MMP is for in vivo targeting of lesions that express MMPs. Literature reports have shown that LLC cells express pro and active MMP-2 and pro NMP-9 and LLC tumours MMP-2 and MMP-9 (not classified as pro or active) [Bae et al Drugs Exp Clin Res. 29(1):15-23 (2003)].

[4] = biological target: MMP-9 (Homo sapiens, UniProt P14780); assay: In vitro metalloproteinase inhibition assay (Biomol MMP-9 colorimetric assay kit); assay type: biochemical
Procedure: as §1
(§5) Inhibitors were provided in powdered form, and stored at 4° C. For each inhibitor a 1 mM stock solution in DMSO was prepared, dispensed into 20 μl aliquots and these aliquots stored at −20° C. […] Dilutions were made in the kit assay buffer. A five-fold dilution of the inhibitor stocks is made on addition to the assay wells, therefore final concentration range was from 10 μM to 1 pM.

[5] = biological target: MMP-12 (Homo sapiens, UniProt P39900); assay: In vitro metalloproteinase inhibition assay (Biomol MMP-12 colorimetric assay kit); assay type: biochemical
Procedure: as §1, §2, §3, §4

[6] = biological target: MMP-2 (Homo sapiens, UniProt P08253); assay: In vitro metalloproteinase inhibition assay (Biomol MMP-2 colorimetric assay kit); assay type: biochemical
Procedure: as §1, §5

[7] = biological target: MMP-8 (Homo sapiens, UniProt P22894); assay: In vitro metalloproteinase inhibition assay (colorimetric, thiopeptolide substrate), MMP-8; assay type: biochemical
Procedure: [The source words this procedure for another target and reports this target under the same test.] as §1, §2
Inhibitors were provided in powdered form, and stored at 4° C. For each inhibitor a 1 mM stock solution in DMSO was prepared, dispensed into 20 μl aliquots and these aliquots stored at −20° C. The stock solution was diluted to give 8 inhibitor concentrations (recommended: 50 μM, 5 μM, […], 5 nM, […]). Dilutions were made in the kit assay buffer. […]
as §4

[8] = between 5 and 120 minutes post injection

Chain of MMP-9 (P14780 107-444 limits assumed): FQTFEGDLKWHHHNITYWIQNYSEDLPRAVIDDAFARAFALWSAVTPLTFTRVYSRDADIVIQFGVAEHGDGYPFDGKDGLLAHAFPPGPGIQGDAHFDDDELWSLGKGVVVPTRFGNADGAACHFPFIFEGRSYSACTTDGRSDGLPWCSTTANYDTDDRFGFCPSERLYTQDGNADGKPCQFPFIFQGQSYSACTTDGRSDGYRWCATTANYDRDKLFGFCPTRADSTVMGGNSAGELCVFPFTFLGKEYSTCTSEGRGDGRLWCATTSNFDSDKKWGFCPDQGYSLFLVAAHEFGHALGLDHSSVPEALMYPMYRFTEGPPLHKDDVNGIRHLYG
Chain of MMP-12 (P39900 106-263 limits assumed): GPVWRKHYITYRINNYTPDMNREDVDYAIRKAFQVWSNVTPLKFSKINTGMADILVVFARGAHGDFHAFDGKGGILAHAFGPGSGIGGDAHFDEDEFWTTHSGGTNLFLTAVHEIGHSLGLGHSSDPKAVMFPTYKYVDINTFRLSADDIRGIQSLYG
Chain of MMP-2 (P08253 110-446 limits assumed): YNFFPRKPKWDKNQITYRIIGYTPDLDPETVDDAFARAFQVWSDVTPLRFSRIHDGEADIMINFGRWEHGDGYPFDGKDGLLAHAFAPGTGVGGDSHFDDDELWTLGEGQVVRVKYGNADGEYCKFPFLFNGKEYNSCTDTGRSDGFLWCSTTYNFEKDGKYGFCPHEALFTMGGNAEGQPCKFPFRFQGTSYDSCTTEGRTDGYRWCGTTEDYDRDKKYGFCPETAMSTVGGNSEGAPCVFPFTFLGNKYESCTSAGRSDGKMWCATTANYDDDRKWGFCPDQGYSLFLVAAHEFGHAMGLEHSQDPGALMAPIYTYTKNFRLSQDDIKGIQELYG
Chain of MMP-8 (P22894 101-467): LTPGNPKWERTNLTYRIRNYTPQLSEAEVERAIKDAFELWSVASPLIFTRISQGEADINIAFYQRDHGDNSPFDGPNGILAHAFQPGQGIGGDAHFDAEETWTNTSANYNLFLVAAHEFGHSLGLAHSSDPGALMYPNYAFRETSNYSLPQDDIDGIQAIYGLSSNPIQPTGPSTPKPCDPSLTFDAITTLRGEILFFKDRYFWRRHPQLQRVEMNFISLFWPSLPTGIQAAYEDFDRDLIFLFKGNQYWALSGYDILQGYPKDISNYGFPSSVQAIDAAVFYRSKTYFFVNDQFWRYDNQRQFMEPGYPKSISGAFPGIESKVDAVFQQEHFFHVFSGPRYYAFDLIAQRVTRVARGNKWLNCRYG

Compound: CC(C)C[C@H](CC(=O)NO)C(=O)N[C@@H](Cc1c[nH]c2ccccc12)C(=O)NCc1ccc(I)cc1 [Compound 7]
- Ki [1]: 1.57 ± 2.37 nM

Compound: CNC(=O)[C@H](Cc1ccc([123I])cc1)NC(=O)C[C@@H](CC(C)C)C(=O)NO [Compound 2A]
- % ID/g Blood ([2]; 5 min post injection): 6.5 % ID/g
- % ID/g Carotid ([2]; 5 min post injection): 3.3 % ID/g
- % ID/g Heart ([2]; 5 min post injection): 5.5 % ID/g
- % ID/g Blood ([2]; 120 min post injection): 1.5 % ID/g
- % ID/g Carotid ([2]; 120 min post injection): 2.7 % ID/g
- % ID/g Heart ([2]; 120 min post injection): 3.6 % ID/g
- % Retained Carotid ([2]; 120 min post injection): 83%
- % ID/g Blood ([2]; 360 min post injection): 1.6 % ID/g
- % ID/g Carotid ([2]; 360 min post injection): 1.6 % ID/g
- % ID/g Heart ([2]; 360 min post injection): 1.5 % ID/g
- % Retained Carotid ([2]; 360 min post injection): 47%
- carotid uptake and retention [2, 8]: exhibited carotid uptake and retention
- carotid to blood ratios ([2]; mouse, in vivo): good
- clearance from normal tissues [e.g. blood and other background tissues] ([2]; mouse, in vivo): significant
- Carotid: Blood ([2]; 5 min post injection): 0.5
- Carotid: Heart ([2]; 5 min post injection): 0.8
- Carotid: Blood ([2]; 120 min post injection): 1.8
- Carotid: Heart ([2]; 120 min post injection): 0.8
- Carotid: Blood ([2]; 360 min post injection): 1.0
- Carotid: Heart ([2]; 360 min post injection): 1.0
- % ID GI Excretion ([3]; 5 min post injection): 17.81 % ID
- % ID Heart ([3]; 5 min post injection): 0.86 % ID
- % ID Liver ([3]; 5 min post injection): 29.76 % ID
- % ID Lung ([3]; 5 min post injection): 1.38 % ID
- % ID Urinary Excretion ([3]; 5 min post injection): 19.85 % ID
- % ID/g Blood ([3]; 5 min post injection): 5.89 % ID/g
- % ID/g Tumour ([3]; 5 min post injection): 1.39 % ID/g
- % ID GI Excretion ([3]; 30 min post injection): 28.46 % ID
- % ID Heart ([3]; 30 min post injection): 0.57 % ID
- % ID Liver ([3]; 30 min post injection): 24.43 % ID
- % ID Lung ([3]; 30 min post injection): 0.73 % ID
- % ID Urinary Excretion ([3]; 30 min post injection): 22.52 % ID
- % ID/g Blood ([3]; 30 min post injection): 2.19 % ID/g
- % Retained Tumour ([3]; 30 min post injection): 78%
- % ID/g Tumour ([3]; 30 min post injection): 1.08 % ID/g
- % ID GI Excretion ([3]; 60 min post injection): 29.5 % ID
- % ID Heart ([3]; 60 min post injection): 0.56 % ID
- % ID Liver ([3]; 60 min post injection): 20.04 % ID
- % ID Lung ([3]; 60 min post injection): 0.59 % ID
- % ID Urinary Excretion ([3]; 60 min post injection): 27.7 % ID
- % ID/g Blood ([3]; 60 min post injection): 1.49 % ID/g
- % Retained Tumour ([3]; 60 min post injection): 87%
- % ID/g Tumour ([3]; 60 min post injection): 1.21 % ID/g
- % ID GI Excretion ([3]; 120 min post injection): 34.42 % ID
- % ID Heart ([3]; 120 min post injection): 0.49 % ID
- % ID Liver ([3]; 120 min post injection): 13.45 % ID
- % ID Lung ([3]; 120 min post injection): 0.45 % ID
- % ID Urinary Excretion ([3]; 120 min post injection): 31.03 % ID
- % ID/g Blood ([3]; 120 min post injection): 1.38 % ID/g
- % Retained Tumour ([3]; 120 min post injection): 97%
- % ID/g Tumour ([3]; 120 min post injection): 1.35 % ID/g
- clearance from normal tissues [e.g. blood and other background tissues] ([3]; between 5 and 120 minutes p.i.): occurred between 5 and 120 minutes p.i.
- tumour uptake and retention [3, 8]: exhibited tumour uptake and retention

Compound: CNC(=O)C(CCC(=O)NCCOCCOCCOCCOCCOCCOCCOCCOCCOCCOCCOCCOCCC(=O)NCc1ccc(I)cc1)NC(=O)CC(CC(C)C)C(=O)NO (stereo not shown) [Compound 10]
- Ki [4]: 2.85 ± 3.5 nM
- Ki [1]: 23.9 nM
- Ki [5]: 4.7 nM
- Ki [6]: 8.8 ± 3.1 nM

Compound: CC(C)CC(CC(=O)NC(Cc1c[nH]c2ccccc12)C(=O)NCCOCCOCCOCCOCCOCCOCCOCCOCCOCCOCCOCCOCCC(=O)NCc1ccc(I)cc1)C(=O)NO (stereo not shown) [Compound 14]
- Ki [4]: 0.04 ± 0.03 nM
- Ki [1]: 2.68 ± 0.19 nM
- Ki [7]: 0.082 nM
- Ki [5]: 0.51 nM
- Ki [6]: 0.21 ± 0.05 nM

Compound: CC(C)C[C@H](CC(=O)N[C@@H](C)C(=O)NCc1ccc([123I])cc1)C(=O)NO [Compound 18A]
- % ID/g Blood ([2]; 5 min post injection): 7.3 % ID/g
- % ID/g Carotid ([2]; 5 min post injection): 2.9 % ID/g
- % ID/g Heart ([2]; 5 min post injection): 10.1 % ID/g
- % ID/g Blood ([2]; 120 min post injection): 2.4 % ID/g
- % ID/g Carotid ([2]; 120 min post injection): 1.0 % ID/g
- % ID/g Heart ([2]; 120 min post injection): 2.6 % ID/g
- % Retained Carotid ([2]; 120 min post injection): 34%
- % ID/g Blood ([2]; 360 min post injection): 1.2 % ID/g
- % ID/g Carotid ([2]; 360 min post injection): 0.8 % ID/g
- % ID/g Heart ([2]; 360 min post injection): 1.0 % ID/g
- % Retained Carotid ([2]; 360 min post injection): 26%
- Carotid: Blood ([2]; 5 min post injection): 0.5
- Carotid: Heart ([2]; 5 min post injection): 0.3
- Carotid: Blood ([2]; 120 min post injection): 0.4
- Carotid: Heart ([2]; 120 min post injection): 0.4
- Carotid: Blood ([2]; 360 min post injection): 0.7
- Carotid: Heart ([2]; 360 min post injection): 0.8

Compound: CNC(=O)[C@H](Cc1ccc(I)cc1)NC(=O)[C@@H](CC(=O)NO)CC(C)C [Compound 3]
- Ki [4]: 0.11 ± 0.08 nM
- Ki [1]: 1.77 nM
- Ki [5]: 0.4 ± 0.04 nM
- Ki [6]: 0.2 ± 0.11 nM

Compound: CC(C)CC(CC(=O)NO)C(=O)NC(Cc1c[nH]c2ccccc12)C(=O)NCCOCCOCCOCCOCCOCCOCCOCCOCCOCCOCCOCCOCCC(=O)NCc1ccc(I)cc1 (stereo not shown) [Compound 16]
- Ki [4]: 0.5 ± 0.42 nM
- Ki [1]: 18 ± 1.69 nM
- Ki [5]: 0.4 ± 0.09 nM
- Ki [6]: 0.61 ± 0.16 nM

Compound: CC(C)C[C@H](CC(=O)N[C@@H](Cc1c[nH]c2ccccc12)C(=O)NCc1ccc([123I])cc1)C(=O)NO [Compound 6A]
- % ID/g Blood ([2]; 5 min post injection): 9.9 % ID/g
- % ID/g Carotid ([2]; 5 min post injection): 3.9 % ID/g
- % ID/g Heart ([2]; 5 min post injection): 9.8 % ID/g
- % ID/g Blood ([2]; 60 min post injection): 3.2 % ID/g
- % ID/g Carotid ([2]; 60 min post injection): 1.4 % ID/g
- % ID/g Heart ([2]; 60 min post injection): 2.2 % ID/g
- % Retained Carotid ([2]; 60 min post injection): 36%
- % ID/g Blood ([2]; 120 min post injection): 2.5 % ID/g
- % ID/g Carotid ([2]; 120 min post injection): 1.4 % ID/g
- % ID/g Heart ([2]; 120 min post injection): 1.5 % ID/g
- % Retained Carotid ([2]; 120 min post injection): 37%
- Carotid: Blood ([2]; 5 min post injection): 0.3
- Carotid: Heart ([2]; 5 min post injection): 0.4
- Carotid: Blood ([2]; 60 min post injection): 0.6
- Carotid: Heart ([2]; 60 min post injection): 0.7
- Carotid: Blood ([2]; 120 min post injection): 0.6
- Carotid: Heart ([2]; 120 min post injection): 1.0

Compound: CNC(=O)C(CCC(=O)NCCOCCOCCOCCOCCOCCOCCOCCOCCOCCOCCOCCOCCC(=O)NCc1ccc(I)cc1)NC(=O)C(CC(=O)NO)CC(C)C (stereo not shown) [Compound 12]
- Ki [4]: 7.15 ± 3.32 nM
- Ki [1]: 28.5 nM
- Ki [5]: 8.3 nM
- Ki [6]: 21 ± 2.2 nM
